Assay [1] concerns the target T1, ZAC^E24A/E89A/D105A/D108A/E130A (Homo sapiens, UniProt Q401N2, A152T/D129A/D132A/E113A/E154A/E48A).
T1 construct: expressed in transfected cells; host or cells: Xenopus oocytes injected with cRNA (pUNIV vector)
In words: TEVC in oocytes, Cluster 3 quintuple mutant. The format is cell-based. As to conditions: H^+ pH 4.0; Zn^2+ 10 mM; data not shown. The method, then: (§1) The recordings were performed at room temperature.
(§2) Analysis of the data from the TEVC recordings were performed using Clampfit software version 10.5 (Molecular Devices, Crawley, UK) and GraphPad Prism version 7.0c (GraphPad Software, La Jolla, CA). Unless otherwise stated, the inward currents induced by agonists in oocytes were normalized to the maximal response elicited by a specific agonist (agonist Imax) on each oocyte. Concentration-response and concentration-inhibition curves were fitted in GraphPad Prism by nonlinear regression using the equation for sigmoidal dose-response with variable slope. Each data point represents the mean ± S.E.M. value of recordings performed on at least five oocytes in total from at least two different batches. […] The null hypothesis was rejected at P < 0.05, and the differences between the means were analyzed by Tukey’s multiple comparisons test.
(§3) The putative involvement of candidate residues in Clusters 1, 2, 3 and 4 in Zn^2+ binding to ZAC was investigated in by an elaborate alanine mutagenesis scanning. […] The determined IpH 4.0 value was used in part as a control and in part to enable the distinction of ZAC mutants non-responsive to Zn^2+ due to elimination of their ability to bind the metal ion from those where the mutation had eliminated cell surface expression and/or disrupted overall functionality of the receptor complex. […]

The target of another assay is T2, ZAC^H210A (Homo sapiens, UniProt Q401N2, A152T/H144A).
T2 construct: expressed in transfected cells; host or cells: Xenopus oocytes injected with cRNA (pUNIV vector)
Put plainly: TEVC in oocytes, His120 Ala mutant. It is filed as cell-based. As to conditions: pH 4.0. As to the method:
as §1, §2, §3

Another assay has as its system ZAC/m5-HT3A-II. In words: TEVC in oocytes expressing ZAC/m5-HT3A-II chimera. As to conditions: Zn^2+ 10 mM; H^+ pH 4.0; data not shown. The format is cell-based, mouse/human. As to the method: as §1
Another assay has as its system hα1-Gly/ZAC. Put plainly: TEVC in oocytes expressing hα1-Gly/ZAC chimera. It is filed as cell-based, human. As to conditions: pH 4.5; n = 5. The method, then:
as §1
(§4) Analysis of the data from the TEVC recordings were performed using Clampfit software version 10.5 (Molecular Devices, Crawley, UK) and GraphPad Prism version 7.0c (GraphPad Software, La Jolla, CA). Unless otherwise stated, the inward currents induced by agonists in oocytes were normalized to the maximal response elicited by a specific agonist (agonist Imax) on each oocyte. Concentration-response and concentration-inhibition curves were fitted in GraphPad Prism by nonlinear regression using the equation for sigmoidal dose-response with variable slope. Each data point represents the mean ± S.E.M. value of recordings performed on at least five oocytes in total from at least two different batches. For the data where statistical analysis was performed, a one-way ANOVA was used. The null hypothesis was rejected at P < 0.05, and the differences between the means were analyzed by Tukey’s multiple comparisons test.
(§5) Initially, we constructed four chimeric subunits fusing the ZAC ECD or TMD-ICD with the complementary domains from either the m5-HT3A or the hα1 GlyR subunit: ZAC/m5-HT3A, m5-HT3A/ZAC, ZAC/hα1-Gly and hα1-Gly/ZAC (Fig. 1A). […] (Fig. 1A).

The test system of another assay is ZAC/hα1-Gly. In words: TEVC in oocytes expressing ZAC/hα1-Gly chimera. It is filed as cell-based, human. As to the method: as §1, §4, §5
For another assay, the target named is T3, m5-HT3A/ZAC (Mus musculus / Homo sapiens, UniProt P23979).
T3 sequence (P23979 24-246): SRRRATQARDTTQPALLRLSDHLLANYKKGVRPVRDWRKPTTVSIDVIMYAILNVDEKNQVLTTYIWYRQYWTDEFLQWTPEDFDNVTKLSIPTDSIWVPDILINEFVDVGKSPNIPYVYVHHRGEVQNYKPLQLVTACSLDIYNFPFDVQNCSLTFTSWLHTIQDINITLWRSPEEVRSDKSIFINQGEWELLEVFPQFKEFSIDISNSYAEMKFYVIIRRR
T3 sequence (Q401N2 231-412 partner): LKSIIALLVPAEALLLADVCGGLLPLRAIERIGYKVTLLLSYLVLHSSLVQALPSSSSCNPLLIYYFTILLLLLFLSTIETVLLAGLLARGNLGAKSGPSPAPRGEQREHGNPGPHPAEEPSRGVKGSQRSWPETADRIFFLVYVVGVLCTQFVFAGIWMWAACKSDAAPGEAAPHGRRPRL
In words: TEVC in oocytes expressing m5-HT3A/ZAC chimera. The format is cell-based. As to conditions: pH 4.5; n = 4.
Source text: (§6) The construction of the ZAC-pUNIV plasmid (encoding for the human WT ZAC that contains a Thr in position 128) has been described previously. The m5-HT3A and hα1 GlyR cDNAs were subcloned from their original vectors into pUNIV (Addgene, Watertown, MA) using NheI and EcoRI as restriction enzymes. […] The C-terminus modifications in these four chimeras were introduced in their cDNAs in the same way. Point mutations were introduced in cDNAs by use of the QuikChange mutagenesis kit (Stratagene, San Diego, CA). The validity and absence of unwanted mutations in the constructed cDNAs was verified by DNA sequencing (Macrogen Europe, Amsterdam, The Netherlands).
(§7) All cDNAs used for cRNA synthesis were inserted in the pUNIV vector. The cDNAs were linearized and subsequently transcribed and capped using the mMessage mMachine T7 RNA transcription kit (Ambion, Waltham, MA). […] Oocytes were incubated in a sterile modified Barth’s solution [88 mM NaCl, 1 mM KCl, 15 mM HEPES (pH 7.5), 2.4 mM NaHCO3, 0.41 mM CaCl2, 0.82 mM MgSO4, 0.3 mM Ca(NO3)2, 100 U/ml penicillin and 100 μg/ml streptomycin] at 16–18 °C. Based on experience gained with WT ZAC in a recent study, all TEVC recordings were performed two days after cRNA injection.
(§8) On the day of the TEVC recording, all compound dilutions were prepared in a saline solution [115 mM NaCl, 2.5 mM KCl, 10 mM MOPS (pH 7.5), 1.8 mM CaCl2, 0.1 mM MgCl2], and pH was adjusted to 7.5 (if needed). Oocytes were placed in a recording chamber continuously perfused with this saline solution, and the compounds were applied in the perfusate. Both voltage and current electrodes were agar-plugged with 3 M KCl with a resistance of 0.2–2.0 MΩ. Oocytes were voltage-clamped at −50 mV (except in the studies of the chimeras and their parent receptors where they were clamped at −60 mV, section 3.1), by a Gene Clamp 500B amplifier, and current signals were digitized by a Digidata 1322A (both from Axon Instruments, Union City, CA). Currents were recorded using pCLAMP 10 (Molecular Devices, Sunnyvale, CA). The recordings were performed at room temperature.
(§9) In all recordings, compounds or compound combinations were applied in the bath until the peak current decayed to a steady state (up to 30 s). […] The antagonist properties of compounds were determined by pre-application of the compound to the perfusate for 30 s followed by co-application of the compound and the agonist. In all recordings, washes of 1–5 min were executed between the ligand applications, the length of the washes depending on the agonist concentrations used and on the return to baseline current amplitude.
as §4

The target of assay [2] is T4, ZAC^E136A/H139A/D143A/H144A (Homo sapiens, UniProt Q401N2, A152T/D167A/E160A/H163A/H168A).
T4 construct: expressed in transfected cells; host or cells: Xenopus oocytes injected with cRNA (pUNIV vector)
In words: TEVC in oocytes, Cluster 2 quadruple mutant. It is filed as cell-based. As to conditions: Zn^2+ 10 mM; H^+ pH 4.0; data not shown. The method, then: as §1, §2, §3

The target in a further assay is T5, ZAC^D116A/DH8A/H210A (Homo sapiens, UniProt Q401N2, A152T/D140A/D142A/H144A).
T5 construct: expressed in transfected cells; host or cells: Xenopus oocytes injected with cRNA (pUNIV vector)
Put plainly: TEVC in oocytes, Cluster 1 triple mutant. The format is cell-based. The conditions noted are these: pH 4.0. The method, then: as §1, §2, §3

The subject of another assay is ZAC/m5-HT3A. In words: TEVC in oocytes expressing ZAC/m5-HT3A chimera. It is filed as cell-based, mouse/human. The conditions noted are these: pH 4.5; n = 5. The method, then: as §1, §4, §5
In a further assay the target is T6, WT hα1 GlyR (Homo sapiens, UniProt P23415).
T6 construct: expressed in transfected cells; host or cells: Xenopus oocytes injected with cRNA (pUNIV vector)
T6 sequence (P23415 29-457): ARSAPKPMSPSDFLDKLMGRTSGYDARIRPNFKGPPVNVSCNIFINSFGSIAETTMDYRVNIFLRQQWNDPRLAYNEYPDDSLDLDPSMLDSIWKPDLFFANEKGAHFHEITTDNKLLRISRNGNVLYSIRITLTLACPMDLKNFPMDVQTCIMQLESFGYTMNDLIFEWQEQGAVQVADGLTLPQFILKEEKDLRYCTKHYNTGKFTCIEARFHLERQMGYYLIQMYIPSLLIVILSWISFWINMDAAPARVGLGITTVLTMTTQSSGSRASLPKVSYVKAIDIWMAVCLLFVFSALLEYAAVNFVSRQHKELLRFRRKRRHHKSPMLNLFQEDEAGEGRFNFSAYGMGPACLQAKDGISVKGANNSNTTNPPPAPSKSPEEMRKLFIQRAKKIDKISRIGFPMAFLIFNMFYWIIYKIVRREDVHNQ
The format is cell-based.
Source text: as §6, §7, §8, §9, §2

A further assay deals with T7, WT ZAC (Homo sapiens, UniProt Q401N2, A152T).
T7 construct: expressed in transfected cells; host or cells: Xenopus oocytes injected with cRNA (pUNIV vector)
T7 sequence (Q401N2 26-412 A152T): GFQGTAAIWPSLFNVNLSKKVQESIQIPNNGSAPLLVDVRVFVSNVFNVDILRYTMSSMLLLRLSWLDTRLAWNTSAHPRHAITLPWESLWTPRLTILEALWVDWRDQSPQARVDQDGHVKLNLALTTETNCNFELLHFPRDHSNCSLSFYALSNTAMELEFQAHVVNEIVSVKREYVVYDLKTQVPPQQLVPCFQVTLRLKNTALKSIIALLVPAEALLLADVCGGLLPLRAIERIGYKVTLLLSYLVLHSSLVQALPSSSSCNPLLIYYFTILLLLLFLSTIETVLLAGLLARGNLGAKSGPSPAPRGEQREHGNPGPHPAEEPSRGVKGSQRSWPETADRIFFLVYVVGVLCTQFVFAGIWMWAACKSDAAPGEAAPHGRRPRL
Put plainly: TEVC in Xenopus oocytes expressing WT ZAC. It is filed as cell-based. As to conditions: PTX at concentrations up to 100 μM; Zn^2+ 1 mM. The method, then: as §1, §4

T5 sequence (Q401N2 26-412 D140A/D142A/H144A/A152T): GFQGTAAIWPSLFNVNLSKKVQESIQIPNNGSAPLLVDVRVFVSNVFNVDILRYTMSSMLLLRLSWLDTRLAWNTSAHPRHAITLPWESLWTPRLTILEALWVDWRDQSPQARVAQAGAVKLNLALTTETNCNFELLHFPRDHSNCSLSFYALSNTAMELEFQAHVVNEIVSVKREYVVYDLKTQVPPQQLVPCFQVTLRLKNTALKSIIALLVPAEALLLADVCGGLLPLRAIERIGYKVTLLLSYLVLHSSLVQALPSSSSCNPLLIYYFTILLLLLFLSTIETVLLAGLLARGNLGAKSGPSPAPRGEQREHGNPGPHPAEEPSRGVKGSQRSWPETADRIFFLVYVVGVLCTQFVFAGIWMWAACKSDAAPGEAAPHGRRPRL
T4 sequence (Q401N2 26-412 A152T/E160A/H163A/D167A/H168A): as the sequence (Q401N2 26-412 D140A/D142A/H144A/A152T) above, with A115D, A117D, A119H, E135A, H138A, D142A, H143A counted along it
T1 sequence (Q401N2 26-412 E48A/E113A/D129A/D132A/A152T/E154A): as the sequence (Q401N2 26-412 D140A/D142A/H144A/A152T) above, with E23A, E88A, D104A, D107A, A115D, A117D, A119H, E129A counted along it
T2 sequence (Q401N2 26-412 H144A/A152T): as the sequence (Q401N2 26-412 D140A/D142A/H144A/A152T) above, with A115D, A117D counted along it

For the compound `[H+]` [H^+], the agonist responsiveness entry in [1] and in assay [2] was “non-responsive” throughout. Also, the “IpH 4.0” value on ZAC^H210A is recorded as 30–110 nA. In addition, the results for the agonist-evoked current result in the assay on ZAC/m5-HT3A-II and in the assay on ZAC/hα1-Gly (pH 4.5) were “did not evoke significant currents” and “robust currents”, respectively. For the same compound, the results for the “IpH 4.5 ± S.E.M.” value with hα1-Gly/ZAC, at m5-HT3A/ZAC and in the assay on ZAC/m5-HT3A were −0.0045 ± 0.0019 μA, −0.0027 ± 0.0007 μA and −0.0033 ± 0.0003 μA, respectively. For the same compound, the “IpH 4.0 range” value on ZAC^D116A/DH8A/H210A is listed as 40–100 nA.

Take picrotoxin [PTX]: the entries for the “current during 30-s preincubation of antagonist” value on WT hα1 GlyR (PTX preincubation) and with ZAC/hα1-Gly (PTX preincubation) were “no such outward currents” and “substantial outward currents”, respectively. In addition, the 50% inhibitory concentration (IC50) at WT hα1 GlyR (inhibition of Gly EC90 (100 μM)-elicited responses, read-out: estimated IC50) is < 1 µM; with ZAC/hα1-Gly (inhibition of Zn^2+ EC90 (10 μM)-induced currents, read-out: estimated IC50) it was > 1 µM. For the same compound, the “inhibition of Zn^2+ EC90-mediated signalling” value on WT ZAC is on record as “did not inhibit”.

Broadly, the IC50 is the concentration that gives 50% inhibition.

These data come from PMC11359809, “Probing the molecular basis for signal transduction through the Zinc-Activated Channel (ZAC)” (Biochemical pharmacology, 2021).
